Experiments:
wild buckwheat (POLCO) = assay: Postemergence greenhouse trial, % visual injury on wild buckwheat; assay type: in vivo, Polygonum convolvulus; settings: for % visual injury, observed (Ob): POLCO
Description: (§1) Seeds of the desired test plant species were planted in Sun Gro MetroMix® 306 planting mixture, which typically has a pH of 6.0 to 6.8 and an organic matter content of about 30 percent, in plastic pots with a surface area of 103.2 square centimeters (cm^2). When required to ensure good germination and healthy plants, a fungicide treatment and/or other chemical or physical treatment was applied. The plants were grown for 7-36 days (d) in a greenhouse with an approximate 14-hour (h) photoperiod which was maintained at about 23° C. during the day and 22° C. during the night. Nutrients and water were added on a regular basis and supplemental lighting was provided with overhead metal halide 1000-Watt lamps as necessary. The plants were employed for testing when they reached the second or third true leaf stage.
(§2) Weighed amounts of technical material were dissolved in a volume of 97:3 volume per volume (v/v) acetone/dimethyl sulfoxide (DMSO) to stock solutions. […] The concentrated stock solutions were diluted with an aqueous mixture of 1.5% v/v of Agri-dex crop oil concentrate to provide the appropriate application rates. Compound requirements are based upon a 12 milliliter (mL) application volume at a rate of 187 liters per hectare (L/ha). Stocks solutions of the safeners were prepared following the same procedure. Spray solutions of the safeners and experimental compound mixtures were prepared by adding the stock solutions to the appropriate amount of dilution solution to form a 12 mL spray solution in two-way combinations. Formulated compounds were applied to the plant material with an overhead Mandel track sprayer equipped with 8002E nozzles calibrated to deliver 187 L/ha over an application area of 0.503 square meters (m^2) at a spray height of 18 inches (43 centimeters (cm)) above average plant canopy. Control plants were sprayed in the same manner with the solvent blank. All herbicide application (component a) rates are in g ae/ha and all safener (component b) rates are in g ai/ha.
(§3) The treated plants and control plants were placed in a greenhouse as described above and watered by sub-irrigation to prevent wash-off of the test compounds. After 20-22 d, the condition of the test plants as compared with that of the control plants was determined visually and scored on a scale of 0 to 100 percent where 0 corresponds to no injury and 100 corresponds to complete kill. The condition of the test plants was compared with that of the control plants as determined visually and scored on a scale of 0 to 100 percent, where 0 corresponds to no injury and 100 corresponds to complete kill. Colby's equation was used to determine the herbicidal effects expected from the mixtures.
(§4) The safener cloquintocet-mexyl was combined with compound 1, compound 2, compound 4, compound 5, and compound 6, and applied to corn/maize (ZEAMX) and spring wheat (TRZAS) and the phytotoxicity of the herbicidal compositions was measured. In addition, the efficacy of the herbicidal composition on velvetleaf (ABUTH, Abutilon theophrasti), pigweed (AMARE, Amaranthus retroflexus), winter rape (BRSNW, Brassica napus), lambsquarters (CHEAL, Chenopodium album), thistle (CIRAR, Cirsium arvense), nutsedge (CYPES, Cyperus esculentus), poinsettia (EPHHL, Euphorbia heterophylla), wild buckwheat (POLCO, Polygonum convolvulus), giant foxtail (SETFA, Setaria faberi), and chickweed (STEME, Stellaria media) was evaluated.
(§5) The safener cloquintocet-mexyl was combined with compound 1, compound 2, compound 3, compound 7, compound 8, compound 9, compound 10, compound 11, compound 12, compound 13, compound 14, compound 15, compound 16, compound 17, compound 18, compound 19, and compound 20, and applied to spring wheat (TRZAS), winter wheat (TRZAW), and spring barley (HORVS) and the phytotoxicity of the herbicidal compositions was measured. […]

Russian thistle (SASKR) = assay: Postemergence greenhouse trial, % visual injury on Russian thistle; assay type: in vivo, Salsola kali; settings: for % visual injury, observed (Ob): SASKR; for % visual injury, Ob: alone
cornflower (CENCY) = assay: Postemergence greenhouse trial, % visual injury on cornflower; assay type: in vivo, Centaurea cyanus or Cyanus segetum; settings: alone
winter wheat (TRZAW) = assay: Postemergence greenhouse trial, % visual injury on winter wheat; assay type: in vivo, Triticum aestivum; settings: for % visual injury, observed (Ob): TRZAW; for % visual injury, Ob: alone
Description: as §1, §2, §3, §5

prickly lettuce (LACSE) = assay: Postemergence greenhouse trial, % visual injury on prickly lettuce; assay type: in vivo, Lactuca serriola; settings: alone
Description: as §1, §2
as §3, with “mixtures. […]” for “mixtures.”

chickweed (STEME) = assay: Postemergence greenhouse trial, % visual injury on chickweed; assay type: in vivo, Stellaria media; settings: alone, 35 g/ha
Description: as §1, §2, §3
as §4, with “evaluated. […]” for “evaluated.”

[1] = compound 8 4.380 + CQC-m 0 g/ha

## COC(=O)c1nc(-c2ccc3cc[nH]c3c2F)c(F)c(N)c1Cl [compound 8]
Wild buckwheat (POLCO); [1]
  % visual injury, observed (Ob): 85%
Wild buckwheat (POLCO); compound 8 8.75 + CQC-m 0 g/ha
  % visual injury, observed (Ob): 97%
Wild buckwheat (POLCO); compound 8 17.5 + CQC-m 0 g/ha
  % visual injury, observed (Ob): 93%
Wild buckwheat (POLCO); compound 8 35 + CQC-m 0 g/ha
  % visual injury, observed (Ob): 100%
Wild buckwheat (POLCO); compound 8 70 + CQC-m 0 g/ha
  % visual injury, observed (Ob): 100%
Russian thistle (SASKR); [1]
  % visual injury, observed (Ob): 61%
Russian thistle (SASKR); compound 8 8.75 + CQC-m 0 g/ha
  % visual injury, observed (Ob): 69%
Russian thistle (SASKR); compound 8 17.5 + CQC-m 0 g/ha
  % visual injury, observed (Ob): 83%
Russian thistle (SASKR); compound 8 35 + CQC-m 0 g/ha
  % visual injury, observed (Ob): 85%
Russian thistle (SASKR); compound 8 70 + CQC-m 0 g/ha
  % visual injury, observed (Ob): 90%

## Nc1c(F)c(-c2ccc3cc[nH]c3c2F)nc(C(=O)O)c1Cl [compound 1]
Wild buckwheat (POLCO); alone, 35 g/ha
  % visual injury, Ob: 99%
Cornflower (CENCY); 17.5 g/ha
  % visual injury, Ob: 100%
Cornflower (CENCY); 70 g/ha
  % visual injury, Ob: 100%
Winter wheat (TRZAW); compound 1 alone 20 g/ha
  % visual injury, observed (Ob): 13%
Winter wheat (TRZAW); compound 1 alone 40 g/ha
  % visual injury, observed (Ob): 15%
Winter wheat (TRZAW); 35 g/ha
  % visual injury, Ob: 40%
Winter wheat (TRZAW); 70 g/ha
  % visual injury, Ob: 50%
Prickly lettuce (LACSE); 4.375 g/ha
  % visual injury, Ob: 70%
Prickly lettuce (LACSE); 8.75 g/ha
  % visual injury, Ob: 93%
Prickly lettuce (LACSE); 17.5 g/ha
  % visual injury, Ob: 100%
Prickly lettuce (LACSE); 35 g/ha
  % visual injury, Ob: 100%
Prickly lettuce (LACSE); 70 g/ha
  % visual injury, Ob: 100%
Russian thistle (SASKR); 4.375 g/ha
  % visual injury, Ob: 66%
Russian thistle (SASKR); 8.75 g/ha
  % visual injury, Ob: 70%
Russian thistle (SASKR); 17.5 g/ha
  % visual injury, Ob: 82%
Russian thistle (SASKR); 35 g/ha
  % visual injury, Ob: 90%
Russian thistle (SASKR); 70 g/ha
  % visual injury, Ob: 91%
Chickweed (STEME)
  % visual injury, Ob: 100%
